Test results from US5889148A, “Antibiotic peptides” (priority 1995, dated 1999).
No end group written: not given here.

What was measured:
red blood cells = type: cell-based, human
Experimental: To 190 μl of the red blood cell-containing solution thus prepared, was added 10 μl of peptide solution prior to the incubation at 37° C. for 30 min. After incubation, centrifugation followed to obtain supernatant. Then, a level (%) of cell lysis caused by peptides was determined by the examination of absorbance at 576 nm (see: Table 12). At this moment, TEDFK, TEDFK-1A, M5, M6, M19, M22 and M32 were chosen as peptide fragments of Tenecin, and an antibiotic peptide KLK (see: Natori, S. et al., J. Biochem., 117(6):1312-1316(1995)) and a commercially available antibiotic, Amphotericin B(Sigma, USA) known to lyse a red blood cell were employed as controls, respectively.

[1] = tested on: Staphylococcus aureus (ATCC 6538); test: MIC test, antibacterial activity; type: cell-based
Experimental: (§1) Antibacterial and antifungal activities of the peptides were determined by employing MIC test as follows:
(§2) To determine antifungal activity, a test organism Candida albicans (ATCC 36232) was cultured on Sabouraud dextrose agar plate for 24 to 48 hrs, and colonies thus grown were suspended on Sabouraud dextrose medium(Gibco, USA) to have O.D.530 =0.5(3×10^6 cells) and further diluted with 100-fold to have O.D.530 =0.005(3×10^4 cells). 100 μl of Candida albicans culture thus prepared was pipetted on 96-well microplates which had already contained 100 μl of a serially diluted peptide solution.
Antibacterial activity of peptide was determined analogously as above, with an exception that Staphylococcus aureus (ATCC 6538) selected as a test organism was cultured on M-3 medium(Gibco, USA) at 37° C. and cell number was adjusted to 2×10^8 cells before 100-fold dilution.

[2] = tested on: Candida albicans (ATCC 36232); test: MIC test, antifungal activity; type: cell-based
Experimental: as §1, §2

[3] = Table 3, addition of an amino acid to N-terminal of TED
[4] = Table 4, addition of an amino acid to N-terminal of TEDF
[5] = Table 1, peptide fragments of Tenecin
[6] = Table 8, TEDFK derivatives of group 1
[7] = Table 11, enantiomer, retro-inverso, D-amino acid derivatives of M22

C[C@@H]1[C@H](O)[C@@H](C)/C=C/C=C/C=C/C=C/C=C/C=C/C=C/[C@H](O[C@@H]2O[C@H](C)[C@@H](O)[C@H](N)[C@@H]2O)C[C@@H]2O[C@](O)(C[C@@H](O)C[C@@H](O)[C@H](O)CC[C@@H](O)C[C@@H](O)CC(=O)O[C@H]1C)C[C@H](O)[C@H]2C(=O)O [Amphotericin B]
cell lysis (in words) (red blood cells): cause cell lysis

LYCNGKRVCVCR--NH2 (LYCNGKRVCVCR-NH2; cysteine pairing not given here) [TEDL]
MIC S. aureus [1, 3]: 5 µg/mL
MIC C. albicans [2, 3]: 5 µg/mL

PYCNGKRVCVCR--NH2 (PYCNGKRVCVCR-NH2; cysteine pairing not given here) [TEDP]
MIC S. aureus [1, 3]: 5 µg/mL
MIC C. albicans [2, 3]: 5 µg/mL

SFYCNGKRVCVCR--NH2 (SFYCNGKRVCVCR-NH2; cysteine pairing not given here) [TEDFS]
MIC S. aureus [1, 4]: 50 µg/mL
MIC C. albicans [2, 4]: 10 µg/mL

SYCNGKRVCVCR--NH2 (SYCNGKRVCVCR-NH2; cysteine pairing not given here) [TEDS]
MIC S. aureus [1, 3]: 10 µg/mL
MIC C. albicans [2, 3]: 50 µg/mL

VTCDILSSVEAKGVKL--NH2 (VTCDILSSVEAKGVKL-NH2) [TEC]
MIC S. aureus [1, 5]: > 500 µg/mL
MIC C. albicans [2, 5]: > 100 µg/mL

VTCDILSVEAKGVKLNDAACAAHC-LFRGRSGGYCNGKRVCVCR--CO2 H [Tenecin]
MIC S. aureus [1, 5]: 3 µg/mL
MIC C. albicans [2, 5]: > 500 µg/mL

WFYCNGKRVCVCR--NH2 (WFYCNGKRVCVCR-NH2; cysteine pairing not given here) [M29]
MIC S. aureus [1, 6]: 30 µg/mL
MIC C. albicans [2, 6]: 25 µg/mL

WFYCNGKRVCVCR--NH2 (WFYCNGKRVCVCR-NH2; cysteine pairing not given here) [TEDFW]
MIC S. aureus [1, 4]: 1 µg/mL
MIC C. albicans [2, 4]: 10 µg/mL

WYCNGKRVCVCR--NH2 (WYCNGKRVCVCR-NH2; cysteine pairing not given here) [TEDW]
MIC S. aureus [1, 3]: 20 µg/mL
MIC C. albicans [2, 3]: 20 µg/mL

YCNGKRVCVCR--NH2 (YCNGKRVCVCR-NH2; cysteine pairing not given here) [TED]
MIC S. aureus [1, 5]: 10 µg/mL
MIC S. aureus [1, 3]: 10 µg/mL
antifungal activity (in words) [2]: excellent antifungal activity
MIC C. albicans [2, 5]: 10 µg/mL
MIC against C. albicans ([2]; Table 2, modification of N-terminal residues of TED): 10 µg/mL
MIC C. albicans [2, 3]: 10 µg/mL

YCNGKRVCVCRKK--NH2 (YCNGKRVCVCRKK-NH2; cysteine pairing not given here) [M15]
MIC S. aureus [1, 6]: 6.35 µg/mL
MIC C. albicans [2, 6]: 6.25 µg/mL

YFYCNGKRVCVCR--NH2 (YFYCNGKRVCVCR-NH2; cysteine pairing not given here) [TEDFY]
MIC S. aureus [1, 4]: 50 µg/mL
MIC C. albicans [2, 4]: 100 µg/mL

kfycngkrvcvcr-NH2 [Enantiomer of TEDFK]
MIC S. aureus [1, 7]: 6.35 µg/mL
MIC C. albicans [2, 7]: 6.35 µg/mL

rcvcvrkgncyfk-NH2 [Retro-inverso of TEDFK]
MIC S. aureus [1, 7]: 6.25 µg/mL
MIC C. albicans [2, 7]: 6.25 µg/mL
